According to US20240335431A1, “1-H-PYRROLO[2,3-c]PYRIDINE COMPOUNDS” (Acerta Pharma B.V., priority 2023, published 2024):
Like-named read-outs stand apart in the source and are kept apart here.

Legend:
MOLM-13 cells = assay: Proliferation assay, MOLM-13 (CellTiter-Glo, 7 days); assay type: cell-based, human
How it was run: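 Cells seeded at 125 (MOLM-13), 300 (MV4;11), 75 (OCI-AML3) or 200 (HEL) per well were exposed to 3.16-fold compound dilutions (0.1% DMSO) for 7 days at 37° C. Viability by CellTiter-Glo luminescence, normalized to DMSO (100%) and day-0 plate (0%); IC50 from one-site dose-response fit.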

[1] = Caco-2 cell monolayers intrinsic permeation assay in the presence of efflux inhibitors; assay type: in vitro ADME; conditions: Caco-2, with efflux inhibitors
How it was run: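 Caco-2 monolayers grown 14–18 days on Transwells; compound dosed apically in HBSS with efflux inhibitors (Zosuquidar, Benzbromarone, KO-143), inhibitors also basolateral, 37 °C with shaking. Sampled at 0, 45 and 120 min, analysed by LC/MS/MS; apical-to-basolateral Papp (cm/s) calculated.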

## CC(C)c1ccncc1-c1cc(F)ccc1-n1cc(C(=O)C2CCN(C(=O)[C@H]3N[C@@H]4CC[C@H]3C4)CC2)c2ccncc21 [Example 41, (1-((1R,3S,4S)-2-Azabicyclo[2.2.1]heptane-3-carbonyl)piperidin-4-yl)(1-(4-fluoro-2-(4-isopropylpyridin-3-yl)phenyl)-1H-pyrrolo[2,3-c]pyridin-3-yl)methanone]
MOLM-13 cells; Homo sapiens, MOLM-13, 168 h
  IC50: 42 nM
[1]
  Papp A→B: 0.5 ×10⁻⁶ cm/s

## CC(C)N(C(=O)c1cc(F)ccc1-n1cc(C(=O)C2CCN(C(=O)[C@H]3NC4CCC3CC4)CC2)c2ccncc21)C(C)C [Example 20, (S)-2-(3-(1-(2-Azabicyclo[2.2.2]octane-3-carbonyl)piperidine-4-carbonyl)-1H-pyrrolo[2,3-c]pyridin-1-yl)-5-fluoro-N,N-diisopropylbenzamide]
MOLM-13 cells; Homo sapiens, MOLM-13, 168 h
  IC50: 40 nM
[1]
  Papp A→B: 0.8 ×10⁻⁶ cm/s

## CCN(C(=O)c1cc(F)ccc1-n1c(C)c(C(=O)C2CCN(C(=O)[C@H]3N[C@@H]4CC[C@H]3C4)CC2)c2ccncc21)C(C)C [Example 46, 2-(3-(1-((1R,3S,4S)-2-Azabicyclo[2.2.1]heptane-3-carbonyl)piperidine-4-carbonyl)-2-methyl-1H-pyrrolo[2,3-c]pyridin-1-yl)-N-ethyl-5-fluoro-N-isopropylbenzamide]
MOLM-13 cells; Homo sapiens, MOLM-13, 168 h
  IC50: 52 nM
[1]
  Papp A→B: 0.3 ×10⁻⁶ cm/s

## CC(C)c1ncccc1-c1cc(F)ccc1-n1cc(C(=O)C2CCN(C(=O)[C@H]3N[C@@H]4CC[C@H]3C4)CC2)c2ccncc21 [Example 38, (1-((1R,3S,4S)-2-Azabicyclo[2.2.1]heptane-3-carbonyl)piperidin-4-yl)(1-(4-fluoro-2-(2-isopropylpyridin-3-yl)phenyl)-1H-pyrrolo[2,3-c]pyridin-3-yl)methanone]
MOLM-13 cells; Homo sapiens, MOLM-13, 168 h
  IC50: 27 nM
[1]
  Papp A→B: 1.5 ×10⁻⁶ cm/s

## COCCN(C)CCC[C@H](C(C)C)N1CCC(C(=O)c2cn(-c3ccc(F)cc3C(=O)N(C(C)C)C(C)C)c3cnccc23)CC1 (racemic) [Example 23, rac-(R)-5-Fluoro-N,N-diisopropyl-2-(3-(1-(6-((2-methoxyethyl)(methyl)amino)-2-methylhexan-3-yl)piperidine-4-carbonyl)-1H-pyrrolo[2,3-c]pyridin-1-yl)benzamide]
MOLM-13 cells; Homo sapiens, MOLM-13, 168 h
  IC50: 37 nM
[1]
  Papp A→B: 1.5 ×10⁻⁶ cm/s

## CC(C)N(C(=O)c1cc(F)ccc1-n1cc(C(=O)C2CCN(C(=O)[C@@H]3CCC4(CC4)N3)CC2)c2ccncc21)C(C)C [Example 24, (S)-2-(3-(1-(4-Azaspiro[2.4]heptane-5-carbonyl)piperidine-4-carbonyl)-1H-pyrrolo[2,3-c]pyridin-1-yl)-5-fluoro-N,N-diisopropylbenzamide]
MOLM-13 cells; Homo sapiens, MOLM-13, 168 h
  IC50: 32 nM
[1]
  Papp A→B: 18.2 ×10⁻⁶ cm/s

## O=C(c1cn(-c2ccc(F)cc2-c2cncnc2C2CC2)c2cnccc12)C1CCN(C(=O)[C@H]2N[C@@H]3CC[C@H]2C3)CC1 [Example 40, (1-((1R,3S,4S)-2-Azabicyclo[2.2.1]heptane-3-carbonyl)piperidin-4-yl)(1-(2-(4-cyclopropylpyrimidin-5-yl)-4-fluorophenyl)-1H-pyrrolo[2,3-c]pyridin-3-yl)methanone]
MOLM-13 cells; Homo sapiens, MOLM-13, 168 h
  IC50: 61 nM
[1]
  Papp A→B: 0.3 ×10⁻⁶ cm/s

## CC(C)N(C(=O)c1cc(F)ccc1-n1cc(C(=O)C2CN(C(=O)[C@H]3N[C@@H]4CC[C@H]3C4)C2)c2ccnc(F)c21)C(C)C [Example 15, 2-(3-(1-((1R,3S,4S)-2-Azabicyclo[2.2.1]heptane-3-carbonyl)azetidine-3-carbonyl)-7-fluoro-1H-pyrrolo[2,3-c]pyridin-1-yl)-5-fluoro-N,N-diisopropylbenzamide]
MOLM-13 cells; Homo sapiens, MOLM-13, 168 h
  IC50: 98 nM
[1]
  Papp A→B: 4.2 ×10⁻⁶ cm/s

## CC(C)N(C(=O)c1cc(F)ccc1-n1cc(C(=O)C2CN(C(=O)[C@H]3N[C@H]4C[C@@H]3[C@@H](F)C4)C2)c2ccncc21)C(C)C [Example 7, 5-Fluoro-2-(3-(1-((1S,3S,4S,5S)-5-fluoro-2-azabicyclo[2.2.1]heptane-3-carbonyl)azetidine-3-carbonyl)-1H-pyrrolo[2,3-c]pyridin-1-yl)-N,N-diisopropylbenzamide]
MOLM-13 cells; Homo sapiens, MOLM-13, 168 h
  IC50: 63 nM
[1]
  Papp A→B: 2.2 ×10⁻⁶ cm/s

## Cc1c(C(=O)C2CCN(C(=O)[C@@H]3CCC4(CC4)N3)CC2)c2ccncc2n1-c1ccc(F)cc1C(=O)N1[C@H](C)COC[C@H]1C (single isomer, unassigned) [Example 58-2]
MOLM-13 cells
  IC50: 37 nM
[1]
  Papp A→B: 5.4 ×10⁻⁶ cm/s

## Cc1c(C(=O)C2CCN(C(=O)[C@H]3NC[C@@H]4C[C@@H]43)CC2)c2ccncc2n1-c1ccc(F)cc1C(=O)N(C(C)C)C(C)C (single isomer, unassigned) [Example 55-1]
MOLM-13 cells
  IC50: 1260 nM
[1]
  Papp A→B: 3.7 ×10⁻⁶ cm/s

## CC(C)N(C(=O)c1cc(F)ccc1-n1cc(C(=O)C2CCN(C(=O)[C@H]3N[C@@H]4CC[C@H]3C4)CC2)c2c(F)cncc21)C(C)C.O=CO [Example 44, 2-(3-(1-((1R,3S,4S)-2-Azabicyclo[2.2.1]heptane-3-carbonyl)piperidine-4-carbonyl)-4-fluoro-1H-pyrrolo[2,3-c]pyridin-1-yl)-5-fluoro-N,N-diisopropylbenzamide 1·formic acid]
MOLM-13 cells; Homo sapiens, MOLM-13, 168 h
  IC50: 73 nM
[1]
  Papp A→B: 1 ×10⁻⁶ cm/s

## CC(C)(F)c1ncccc1-c1cc(F)ccc1-n1cc(C(=O)C2CN(C(=O)[C@H]3N[C@@H]4CC[C@H]3C4)C2)c2ccncc21 [Example 13, (1-((1R,3S,4S)-2-Azabicyclo[2.2.1]heptane-3-carbonyl)azetidin-3-yl)(1-(4-fluoro-2-(2-(2-fluoropropan-2-yl)pyridin-3-yl)phenyl)-1H-pyrrolo[2,3-c]pyridin-3-yl)methanone]
MOLM-13 cells; Homo sapiens, MOLM-13, 168 h
  IC50: 51 nM
[1]
  Papp A→B: 1.7 ×10⁻⁶ cm/s

## CC(C)N(C(=O)c1cc(F)ccc1-n1cc(C(=O)C2CCN(C(=O)[C@H]3NC[C@@H]4C[C@@H]43)CC2)c2ccncc21)C(C)C [Example 19, 2-(3-(1-((1S,2S,5R)-3-Azabicyclo[3.1.0]hexane-2-carbonyl)piperidine-4-carbonyl)-1H-pyrrolo[2,3-c]pyridin-1-yl)-5-fluoro-N,N-diisopropylbenzamide]
MOLM-13 cells; Homo sapiens, MOLM-13, 168 h
  IC50: 34 nM
[1]
  Papp A→B: 2.6 ×10⁻⁶ cm/s

## CC(C)c1ncsc1-c1cc(F)ccc1-n1cc(C(=O)C2CN(C(=O)[C@H]3N[C@@H]4CC[C@H]3C4)C2)c2ccncc21.O=CO [Example 12, (1-((1R,3S,4S)-2-Azabicyclo[2.2.1]heptane-3-carbonyl)azetidin-3-yl)(1-(4-fluoro-2-(4-isopropylthiazol-5-yl)phenyl)-1H-pyrrolo[2,3-c]pyridin-3-yl)methanone 1·formic acid]
MOLM-13 cells; Homo sapiens, MOLM-13, 168 h
  IC50: 102 nM
[1]
  Papp A→B: 1.6 ×10⁻⁶ cm/s

## CCN(C(=O)c1cc(F)ccc1-n1cc(C(=O)C2CCN(C(=O)[C@H]3NC[C@@H]4C[C@@H]43)CC2)c2ccncc21)C(C)C [Example 28, 2-(3-(1-((1S,2S,5R)-3-Azabicyclo[3.1.0]hexane-2-carbonyl)piperidine-4-carbonyl)-1H-pyrrolo[2,3-c]pyridin-1-yl)-N-ethyl-5-fluoro-N-isopropylbenzamide]
MOLM-13 cells; Homo sapiens, MOLM-13, 168 h
  IC50: 39 nM
[1]
  Papp A→B: 1.1 ×10⁻⁶ cm/s

## CC(C)N(C(=O)c1cc(F)ccc1-n1cc(C(=O)[C@@H]2CCN(C(=O)[C@H]3N[C@@H]4CC[C@H]3C4)C2)c2ccncc21)C(C)C [Example 3, 2-(3-((R)-1-((1R,3S,4S)-2-Azabicyclo[2.2.1]heptane-3-carbonyl)pyrrolidine-3-carbonyl)-1H-pyrrolo[2,3-c]pyridin-1-yl)-5-fluoro-N,N-diisopropylbenzamide]
MOLM-13 cells; Homo sapiens, MOLM-13, 168 h
  IC50: 98 nM
[1]
  Papp A→B: 0.3 ×10⁻⁶ cm/s

## CC(C)N(C(=O)c1cc(F)ccc1-n1cc(C(=O)C2CCN(C[C@H]3CC[C@H](NS(C)(=O)=O)CC3)CC2)c2ccncc21)C(C)C [Example 17, 5-Fluoro-N,N-diisopropyl-2-(3-(1-(((1r,4r)-4-(methylsulfonamido)cyclohexyl)-methyl)piperidine-4-carbonyl)-1H-pyrrolo[2,3-c]pyridin-1-yl)benzamide]
MOLM-13 cells; Homo sapiens, MOLM-13, 168 h
  IC50: 107 nM
[1]
  Papp A→B: 1.8 ×10⁻⁶ cm/s

## CC(C)N(C(=O)c1cc(F)ccc1-n1cc(C(=O)C2CCN(C(=O)[C@@H]3CC4(CC4)CN3)CC2)c2ccncc21)C(C)C [Example 26, (S)-2-(3-(1-(5-Azaspiro[2.4]heptane-6-carbonyl)piperidine-4-carbonyl)-1H-pyrrolo[2,3-c]pyridin-1-yl)-5-fluoro-N,N-diisopropylbenzamide]
MOLM-13 cells; Homo sapiens, MOLM-13, 168 h
  IC50: 103 nM
[1]
  Papp A→B: 0.8 ×10⁻⁶ cm/s

## CCN(C(=O)c1cc(F)ccc1-n1cc(C(=O)C2CCN(C(=O)[C@H]3N[C@H]4C[C@@H]3[C@@H](F)C4)CC2)c2ccncc21)C(C)C [Example 30, N-Ethyl-5-fluoro-2-(3-(1-((1S,3S,4S,5S)-5-fluoro-2-azabicyclo[2.2.1]heptane-3-carbonyl)piperidine-4-carbonyl)-1H-pyrrolo[2,3-c]pyridin-1-yl)-N-isopropylbenzamide]
MOLM-13 cells; Homo sapiens, MOLM-13, 168 h
  IC50: 44 nM
[1]
  Papp A→B: 0.8 ×10⁻⁶ cm/s

## CCN(C(=O)c1cc(F)ccc1-n1c(C)c(C(=O)C2CCN(C(=O)[C@@H]3CCC4(CC4)N3)CC2)c2ccncc21)C(C)C (single isomer, unassigned) [Example 49-2]
MOLM-13 cells
  IC50: 80 nM
[1]
  Papp A→B: 6.3 ×10⁻⁶ cm/s

## CC(C)N(C(=O)c1cc(F)ccc1-n1cc(C(=O)[C@@H]2CCN(C[C@H]3CC[C@H](NS(C)(=O)=O)CC3)C2)c2ccncc21)C(C)C [Example 4, 5-Fluoro-N,N-diisopropyl-2-(3-((R)-1-(((1r,4R)-4-(methylsulfonamido)-cyclohexyl)methyl)pyrrolidine-3-carbonyl)-1H-pyrrolo[2,3-c]pyridin-1-yl)benzamide]
MOLM-13 cells; Homo sapiens, MOLM-13, 168 h
  IC50: 156 nM
[1]
  Papp A→B: 2 ×10⁻⁶ cm/s

## CC(C)c1ncsc1-c1cc(F)ccc1-n1cc(C(=O)C2CCN(C(=O)[C@H]3N[C@@H]4CC[C@H]3C4)CC2)c2ccncc21.O=CO [Example 42, (1-((1R,3S,4S)-2-Azabicyclo[2.2.1]heptane-3-carbonyl)piperidin-4-yl)(1-(4-fluoro-2-(4-isopropylthiazol-5-yl)phenyl)-1H-pyrrolo[2,3-c]pyridin-3-yl)methanone 1·formic acid]
MOLM-13 cells; Homo sapiens, MOLM-13, 168 h
  IC50: 40 nM
[1]
  Papp A→B: 1.3 ×10⁻⁶ cm/s
